# Reference: patent publication US20230159620A1, “COMPOSITIONS AND METHODS OF TREATMENT FOR VASCULAR DISEASES AND THROMBOSIS” (Washington University, priority 2021, published 2023)
# Legend:
# [1] = tested on: AKT; test: AKT signaling immunoblot, hCASMCs; type: cell-based, human; conditions: relative to BSA controls
# Procedure: (§1) Cellular reagents were purchased from various commercial vendors. Primary human umbilical vein endothelial cells (HUVECs) were obtained from Cell Applications Inc. and cultured according to the manufacture's recommendations. Primary human coronary artery smooth muscle cells were obtained from Invitrogen and were cultured according to the manufacture's recommendations. 293T cells were obtained from ATCC and were cultured according to the manufacture's recommendations. Mouse primary smooth muscle cells were obtained and cultured as described previously. Predesigned Silencer Select siRNA constructs targeting Pearl 1 and negative control siRNA were obtained from ThermoFisher. Transfections were performed using RNAiMAX or Lipofectamine 3000 transfection reagents according to the manufacturer's protocols. Cells were used for signaling assays 48 hours after transfection; efficient Pearl 1 knockdown or Pearl 1 overexpression was confirmed by immunoblot assays.
# (§2) Prior to performing signaling assays, cells were trypsinized, centrifuged, suspended in basal media, and counted using an automated hemocytometer. Cells were further diluted in basal media to an assay-dependent concentration. […] Protein content was determined using a bicinchoninic acid assay with BSA standards (#23225, Pierce BCA Protein Assay Kit). […]
# [2] = tested on: mTOR; test: mTOR signaling, phospho-array and immunoblot, HUVECs; type: cell-based, human
# Procedure: Prior to performing signaling assays, cells were trypsinized, centrifuged, suspended in basal media, and counted using an automated hemocytometer. Cells were further diluted in basal media to an assay-dependent concentration. Cells were then incubated with gentle agitation for 60 minutes to prevent cell attachment and reduce basal signaling. PP1, Dynasore, MK-2206, and Rapamycin were diluted in DMSO and used in assay concentrations of 10 μM, 100 μM, 10 μM, and respectively, for the final 20-30 minutes of incubation in basal media. An equal volume of DMSO was used as the negative control condition. […] 1 μg Pearl 1 polyclonal antibody was added as a specific positive control. 20% growth media or 2% fetal bovine serum, labeled “Serum” in figures, was added as a non-specific positive control. The cells were centrifuged at 300G for 3 minutes with the exception of platelets, which were centrifuged at 500G for 5 minutes. The cells were then incubated at 37° C. for 8-45 minutes, depending on the cell type and pathway of interest. The cells were lysed in radioimmunoprecipitation buffer (RIPA) containing a cocktail of protease and phosphatase inhibitors and universal nuclease. Immunoblots were performed by standard techniques, as briefly follows. Protein content was determined using a bicinchoninic acid assay with BSA standards (#23225, Pierce BCA Protein Assay Kit). Cell lysates were then reduced with dithiothreitol (DTT) in lithium dodecyl sulfate (LDS) sample buffer (#NP0007, Invitrogen). Equal protein amounts were added to polyacrylamide gels (#4561086, BioRad) and electrophoresed prior to transferring to a nitrocellulose or polyvinylidene fluoride membrane (#1620260, BioRad). Membranes were blocked in 5% BSA/Tris-buffered saline (TBS) with 0.1% Tween 20 for 30 minutes. The indicated primary antibodies were incubated with the pre-blocked membranes overnight at 4° C. Membranes were washed with TBS with 0.1% Tween 20, probed with fluorescent secondary antibodies, and imaged. β-actin or β-tubulin served as a loading control. […]
# [3] = tested on: FGF receptors; test: Bulk RNA sequencing of VSMCs, Fgfr transcripts; type: cell-based, mouse; conditions: RNAseq, normalized to BSA
# Procedure: Plates were UV sterilized before adding cells. Primary VSMCs were collected, resuspended in DMEM/F12 media containing 10% FBS, plated on precoated, blocked wells, and incubated for 8 hr to ensure complete cell adhesion. Media was replaced with fresh DMEM/F12 containing 1% FBS and incubated for 12 hr before collection. RNA was collected using RNeasy® Mini Kit (#74106, Qiagen). Atherosclerotic aortic arches (including the aortic root, arch, and the proximal regions of its branching vessels) from mice were used as the source of RNA for the later RNAseq experiment. […]
# Samples were prepared according to the library kit manufacturer's protocol, indexed, pooled, and sequenced on an Illumina HiSeq. Basecalls and demultiplexing were performed with Illumina's bcl2fastq software and a custom python demultiplexing program with a maximum of one mismatch in the indexing read. RNA-seq reads were then aligned to the Ensembl release 76 primary assembly with STAR version 2.5.1a. Gene counts were derived from the number of uniquely aligned unambiguous reads by Subread:featureCount version 1.4.6-p5 2). […] Sequencing performance was assessed for the total number of aligned reads, the total number of uniquely aligned reads, and the features detected. The ribosomal fraction, known junction saturation, and read distribution over known gene models were quantified with RSeQC version 2.6.2. […]
# [4] = tested on: platelets
# Procedure: Complete blood counts (CBC) and washed platelet counts were determined using a hematology analyzer Element HT5 (Heska, Loveland). […] For flow cytometry, diluted whole blood or isolated platelets were pre-incubated with their respective fluorescent antibodies for 15 minutes and fixed. For murine whole blood: CD41-VioBlue, CD61-PE (Mitlenyi Biotec, Bergisch Gladbach, Germany), CD42b-DL649, GPVI-FITC (Emfret, Eibelstadt, Germany) and for human whole blood and isolated platelets: CD41-FITC, CD61-APC, CD42b-PE (Biolegend, San Diego), GPVI-BV421 617 (BD, Franklin Lakes). Platelet surface receptor levels were quantified by flow cytometry on a 618 CytoFlex analyzer.
# Samples were immediately fixed and run using a CytoFlex analyzer (Beckman Coulter, Pasadena) and analysis was performed with Kaluza software (Beckman Coulter, Pasadena).
# [5] = tested on: AKT; test: AKT signaling immunoblot, 293T cells; type: cell-based
# Procedure: as §1, §2
substance,measurement,setting,value
"SVEP1: recombinant murine SVEP1 extracellular matrix protein with Myc and poly-histidine tag, expressed in 293F cells",AKT signaling,[1],activated
same,"phosphorylated mTOR (Ser 2448) and p70S6K Thr 389, immunoblot",[2]; 10 or 30 minutes,activation of mTOR signaling
same,AKT pathway phospho-proteins,[2]; 10 minutes of exposure,Few changes
same,"mTOR pathway phospho-proteins (p70S6K, RPS6, 4E-BP1)",[2]; 30 minutes of exposure,elevated
same,expression of FGF receptors,[3],increases expression of FGF receptors
same,platelet receptor density,"[4]; freshly isolated human platelets, soluble SVEP1",lower levels of receptor CD42b and CD61
same,integrin aIIbβ3 activation (active CD41/61),"[4]; isolated human platelets, basal and with ADP, TRAP6",increased
same,P-selectin expression,"[4]; isolated human platelets, with ADP, TRAP6",increased
same,pAKT levels,[5]; 293T cells transfected with Pearl 1-expression plasmid (constitutive AKT activation),no additional effect on pAKT levels
same,AKT activation,"[5]; 293T cells, which lack Pearl 1",Neither SVEP1 nor Pearl 1 pAb activated AKT
